# In PubChem BioAssay (NCI):
#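 How tested: cells in 96-well plates exposed to compound for 48 hours at five concentrations. TGI marks complete inhibition of growth.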
# Tests used:
# Assay in all cases: inhibition of tumour cell growth, NCI panel, 48 h
# NCI-H460 lung = test system: NCI-H460 lung
# DLD-1 colon = test system: DLD-1 colon
# SK-MEL-28 melanoma = test system: SK-MEL-28 melanoma
# SN12C renal = test system: SN12C renal
# K-562 leukemia = test system: K-562 leukemia
# SF-295 CNS = test system: SF-295 CNS
# CCRF-CEM leukemia = test system: CCRF-CEM leukemia
# HCT-116 colon = test system: HCT-116 colon
# LOX IMVI melanoma = test system: LOX IMVI melanoma
# DMS 273 small cell lung = test system: DMS 273 small cell lung
# OVCAR-5 ovarian = test system: OVCAR-5 ovarian
# MALME-3M melanoma = test system: MALME-3M melanoma
# NCI-H23 lung = test system: NCI-H23 lung
# SNB-78 CNS = test system: SNB-78 CNS
# M14 melanoma = test system: M14 melanoma
# SK-MEL-5 melanoma = test system: SK-MEL-5 melanoma
# RXF 393 renal = test system: RXF 393 renal
# SNB-75 CNS = test system: SNB-75 CNS
# TK-10 renal = test system: TK-10 renal
# DMS 114 small cell lung = test system: DMS 114 small cell lung
# RPMI-8226 leukemia = test system: RPMI-8226 leukemia
# LXFL 529 NSCLC = test system: LXFL 529 NSCLC
# OVCAR-8 ovarian = test system: OVCAR-8 ovarian
# MOLT-4 leukemia = test system: MOLT-4 leukemia
# SK-MEL-2 melanoma = test system: SK-MEL-2 melanoma
# SF-268 CNS = test system: SF-268 CNS
# 786-0 renal = test system: 786-0 renal
# OVCAR-4 ovarian = test system: OVCAR-4 ovarian
# OVCAR-3 ovarian = test system: OVCAR-3 ovarian
# KM20L2 colon = test system: KM20L2 colon
# HL-60(TB) leukemia = test system: HL-60(TB) leukemia
# U251 CNS = test system: U251 CNS
# EKVX NSCLC = test system: EKVX NSCLC
# SF-539 CNS = test system: SF-539 CNS
# NCI-H226 lung = test system: NCI-H226 lung
# SK-OV-3 ovarian = test system: SK-OV-3 ovarian
# ACHN renal = test system: ACHN renal
# HCT-15 colon = test system: HCT-15 colon
# UO-31 renal = test system: UO-31 renal
# A549 NSCLC = test system: A549 NSCLC
# SNB-19 CNS = test system: SNB-19 CNS
# IGROV1 ovarian = test system: IGROV1 ovarian
# HOP-18 NSCLC = test system: HOP-18 NSCLC
# COLO 205 colon = test system: COLO 205 colon
# M19-MEL melanoma = test system: M19-MEL melanoma
# KM12 colon = test system: KM12 colon
# XF 498 CNS = test system: XF 498 CNS
# UACC-62 melanoma = test system: UACC-62 melanoma
# SW-620 colon = test system: SW-620 colon
# HOP-62 NSCLC = test system: HOP-62 NSCLC
# CAKI-1 renal = test system: CAKI-1 renal
# UACC-257 melanoma = test system: UACC-257 melanoma
# HOP-92 NSCLC = test system: HOP-92 NSCLC
# RXF-631 renal = test system: RXF-631 renal
# NCI-H522 lung = test system: NCI-H522 lung
# HT29 colon = test system: HT29 colon
# HCC-2998 colon = test system: HCC-2998 colon
# A498 renal = test system: A498 renal
# SR leukemia = test system: SR leukemia
compound,measurement,setting,value
CC(=O)C1C(c2ccccc2)C2(C)OC(=O)C(C#N)C12C (stereo unspecified),TGI,NCI-H460 lung,> 100 µM
same,TGI,DLD-1 colon,> 100 µM
same,TGI,SK-MEL-28 melanoma,> 100 µM
same,TGI,SN12C renal,> 100 µM
same,TGI,K-562 leukemia,> 100 µM
same,TGI,SF-295 CNS,> 100 µM
same,TGI,CCRF-CEM leukemia,> 100 µM
same,TGI,HCT-116 colon,> 100 µM
same,TGI,LOX IMVI melanoma,> 100 µM
same,TGI,DMS 273 small cell lung,> 100 µM
same,TGI,OVCAR-5 ovarian,> 100 µM
same,TGI,MALME-3M melanoma,> 100 µM
same,TGI,NCI-H23 lung,> 100 µM
same,TGI,SNB-78 CNS,> 100 µM
same,TGI,M14 melanoma,> 100 µM
same,TGI,SK-MEL-5 melanoma,> 100 µM
same,TGI,RXF 393 renal,> 100 µM
same,TGI,SNB-75 CNS,> 100 µM
same,TGI,TK-10 renal,> 100 µM
same,TGI,DMS 114 small cell lung,> 100 µM
same,TGI,RPMI-8226 leukemia,> 100 µM
same,TGI,LXFL 529 NSCLC,> 100 µM
same,TGI,OVCAR-8 ovarian,> 100 µM
same,TGI,MOLT-4 leukemia,> 100 µM
same,TGI,SK-MEL-2 melanoma,> 100 µM
same,TGI,SF-268 CNS,> 100 µM
same,TGI,786-0 renal,> 100 µM
same,TGI,OVCAR-4 ovarian,> 100 µM
same,TGI,OVCAR-3 ovarian,> 100 µM
same,TGI,KM20L2 colon,> 100 µM
same,TGI,HL-60(TB) leukemia,> 100 µM
same,TGI,U251 CNS,> 100 µM
same,TGI,EKVX NSCLC,> 100 µM
same,TGI,SF-539 CNS,> 100 µM
same,TGI,NCI-H226 lung,> 100 µM
same,TGI,SK-OV-3 ovarian,> 100 µM
same,TGI,ACHN renal,> 100 µM
same,TGI,HCT-15 colon,> 100 µM
same,TGI,UO-31 renal,> 100 µM
same,TGI,A549 NSCLC,> 100 µM
same,TGI,SNB-19 CNS,> 100 µM
same,TGI,IGROV1 ovarian,> 100 µM
same,TGI,HOP-18 NSCLC,> 100 µM
same,TGI,COLO 205 colon,> 100 µM
same,TGI,M19-MEL melanoma,> 100 µM
same,TGI,KM12 colon,> 100 µM
same,TGI,XF 498 CNS,> 100 µM
same,TGI,UACC-62 melanoma,> 100 µM
same,TGI,SW-620 colon,> 100 µM
O=S(=O)(C1=CC(S(=O)(=O)c2ccccc2)CN(Cc2ccccc2)C1c1cccc2ccccc12)c1ccccc1 (stereo unspecified),TGI,NCI-H460 lung,> 69 µM
same,TGI,DLD-1 colon,> 69 µM
same,TGI,SK-MEL-28 melanoma,> 69 µM
same,TGI,SN12C renal,> 69 µM
same,TGI,K-562 leukemia,> 69 µM
same,TGI,SF-295 CNS,> 69 µM
same,TGI,HOP-62 NSCLC,> 69 µM
same,TGI,CCRF-CEM leukemia,> 69 µM
same,TGI,HCT-116 colon,> 69 µM
same,TGI,CAKI-1 renal,> 69 µM
same,TGI,LOX IMVI melanoma,> 69 µM
same,TGI,DMS 273 small cell lung,> 69 µM
same,TGI,UACC-257 melanoma,> 69 µM
same,TGI,OVCAR-5 ovarian,> 69 µM
same,TGI,HOP-92 NSCLC,> 69 µM
same,TGI,MALME-3M melanoma,> 69 µM
same,TGI,NCI-H23 lung,> 69 µM
same,TGI,RXF-631 renal,> 69000 nM
same,TGI,SNB-78 CNS,> 69 µM
same,TGI,M14 melanoma,> 69 µM
same,TGI,NCI-H522 lung,> 69 µM
same,TGI,HT29 colon,> 69 µM
same,TGI,SK-MEL-5 melanoma,> 69 µM
same,TGI,RXF 393 renal,> 69 µM
same,TGI,SNB-75 CNS,> 69 µM
same,TGI,TK-10 renal,> 69 µM
same,TGI,DMS 114 small cell lung,> 69 µM
same,TGI,RPMI-8226 leukemia,> 69 µM
same,TGI,OVCAR-8 ovarian,> 69 µM
same,TGI,MOLT-4 leukemia,> 69 µM
same,TGI,SK-MEL-2 melanoma,> 69 µM
same,TGI,SF-268 CNS,> 69 µM
same,TGI,786-0 renal,> 69 µM
same,TGI,OVCAR-4 ovarian,> 69 µM
same,TGI,OVCAR-3 ovarian,> 69 µM
same,TGI,KM20L2 colon,> 69 µM
same,TGI,HL-60(TB) leukemia,> 69 µM
same,TGI,U251 CNS,> 69 µM
same,TGI,EKVX NSCLC,> 69 µM
same,TGI,SF-539 CNS,> 69 µM
same,TGI,NCI-H226 lung,> 69 µM
same,TGI,SK-OV-3 ovarian,> 69 µM
same,TGI,HCC-2998 colon,> 69 µM
same,TGI,ACHN renal,> 69 µM
same,TGI,HCT-15 colon,> 69 µM
same,TGI,UO-31 renal,> 69 µM
same,TGI,A498 renal,> 69 µM
same,TGI,A549 NSCLC,> 69 µM
same,TGI,SNB-19 CNS,> 69 µM
same,TGI,IGROV1 ovarian,> 69 µM
same,TGI,M19-MEL melanoma,> 69 µM
same,TGI,KM12 colon,> 69 µM
same,TGI,UACC-62 melanoma,> 69 µM
same,TGI,SW-620 colon,> 69 µM
C=C1C(=O)OC2/C=C(\C(=O)O)CC/C=C(\C)CC(OC(=O)/C=C(\C)CC)C12 (stereo unspecified),TGI,NCI-H460 lung,30.7 µM
same,TGI,DLD-1 colon,43.6 µM
same,TGI,SK-MEL-28 melanoma,34.2 µM
same,TGI,SR leukemia,> 100000 nM
same,TGI,SN12C renal,31 µM
same,TGI,K-562 leukemia,> 100 µM
same,TGI,SF-295 CNS,31.3 µM
same,TGI,HOP-62 NSCLC,34.5 µM
same,TGI,CCRF-CEM leukemia,> 100 µM
same,TGI,HCT-116 colon,25.6 µM
same,TGI,CAKI-1 renal,54.1 µM
same,TGI,LOX IMVI melanoma,29.3 µM
same,TGI,DMS 273 small cell lung,34 µM
same,TGI,UACC-257 melanoma,39.9 µM
same,TGI,OVCAR-5 ovarian,26.6 µM
same,TGI,HOP-92 NSCLC,36.8 µM
same,TGI,MALME-3M melanoma,32.7 µM
same,TGI,NCI-H23 lung,33.2 µM
same,TGI,SNB-78 CNS,61 µM
same,TGI,M14 melanoma,31.2 µM
same,TGI,NCI-H522 lung,32.8 µM
same,TGI,HT29 colon,30.1 µM
same,TGI,SK-MEL-5 melanoma,32.9 µM
same,TGI,RXF 393 renal,27.5 µM
same,TGI,SNB-75 CNS,47.6 µM
same,TGI,TK-10 renal,> 100 µM
same,TGI,DMS 114 small cell lung,30.2 µM
same,TGI,RPMI-8226 leukemia,> 100 µM
same,TGI,LXFL 529 NSCLC,31.6 µM
same,TGI,OVCAR-8 ovarian,33.9 µM
same,TGI,MOLT-4 leukemia,> 100 µM
same,TGI,SK-MEL-2 melanoma,28.7 µM
same,TGI,SF-268 CNS,30.6 µM
same,TGI,OVCAR-4 ovarian,45.1 µM
same,TGI,OVCAR-3 ovarian,30.8 µM
same,TGI,KM20L2 colon,39.5 µM
same,TGI,HL-60(TB) leukemia,> 100 µM
same,TGI,U251 CNS,30.7 µM
same,TGI,EKVX NSCLC,59.3 µM
same,TGI,SF-539 CNS,29.9 µM
same,TGI,NCI-H226 lung,32.9 µM
same,TGI,SK-OV-3 ovarian,37.9 µM
same,TGI,HCC-2998 colon,33.8 µM
same,TGI,ACHN renal,46.2 µM
same,TGI,HCT-15 colon,28.6 µM
same,TGI,UO-31 renal,41.9 µM
same,TGI,A498 renal,32 µM
same,TGI,A549 NSCLC,31.6 µM
same,TGI,SNB-19 CNS,33.5 µM
same,TGI,IGROV1 ovarian,40.9 µM
same,TGI,HOP-18 NSCLC,39.9 µM
same,TGI,COLO 205 colon,31.3 µM
same,TGI,M19-MEL melanoma,29.1 µM
same,TGI,KM12 colon,27.9 µM
same,TGI,XF 498 CNS,32.5 µM
same,TGI,UACC-62 melanoma,28.5 µM
same,TGI,SW-620 colon,31.3 µM
CCC(=O)OC[n+]1ccc2c(C)c3[nH]c4ccccc4c3c(C)c2c1,TGI,SR leukemia,553 nM
same,TGI,SF-295 CNS,1.88 µM
same,TGI,CCRF-CEM leukemia,2.68 µM
same,TGI,OVCAR-5 ovarian,1.91 µM
same,TGI,HOP-92 NSCLC,2.34 µM
same,TGI,RXF-631 renal,1910 nM
same,TGI,HT29 colon,2.36 µM
same,TGI,SK-MEL-5 melanoma,2.51 µM
same,TGI,SNB-75 CNS,2.55 µM
same,TGI,TK-10 renal,3.18 µM
same,TGI,DMS 114 small cell lung,1.95 µM
same,TGI,RPMI-8226 leukemia,2.2 µM
same,TGI,LXFL 529 NSCLC,1.78 µM
same,TGI,MOLT-4 leukemia,0.725 µM
same,TGI,OVCAR-3 ovarian,2.68 µM
same,TGI,KM20L2 colon,2.3 µM
same,TGI,HL-60(TB) leukemia,6.18 µM
same,TGI,ACHN renal,1.76 µM
same,TGI,HOP-18 NSCLC,0.701 µM
same,TGI,COLO 205 colon,1.55 µM
same,TGI,M19-MEL melanoma,2 µM
